Converted amounts (≈) assume the structure as drawn.

For one test, the system named is Soybean. Kind of test: Post-emergent herbicidal test, soybean. The class given is in vivo. Also on record: key: 1: no perceptible injury; 2: intermediate degrees of injury; 3: intermediate degrees of injury; 4: intermediate degrees of injury; 5: the plant was dead. To be noted: 2500 parts per million, after ten days; for Post Emergent Herbicidal, Soybean: Table III; for Post-emergent Herbicidal, Soybean: Table II. As for the experimental part: (§1) Suspensions of the test compounds were prepared by dissolving one gram of compound in 50 milliliters of acetone in which had been dissolved 0.1 gram (10 percent of the weight of compound) of an alkylphenoxyethanol sufactant, as an emulsifying or dispersing agent. The resulting solution was mixed into 160 milliliters of water to give roughly 200 milliliters of a suspension containing the compound in finely divided form. The thus prepared stock suspension contained 0.5 percent by weight of compound. The test concentrations employed in the tests described below were obtained by diluting the stock suspension with water. The test procedures were as follows:
(§2) Experiments were also conducted to determine the phytotoxicity of representative compositions with respect to healthy fresh plants. Solutions of the compounds were prepared as described above to provide a concentration of 2500 parts per million of the test compound. The test plants were sprayed in accordance with the procedure described above for the Mite Foliage Spray Test so as to deliver approximately 100 milliliters of test solutions to the leaves of each plant tested. The sprayed plants and controls were set aside for approximately one hour to allow the solutions to dry and were then placed in the greenhouse. After ten days the plants were visually inspected to determine the extent of foliage injury. A rating of 1 indicates no perceptible injury; 5 indicates the plant was dead and ratings of 2, 3 and 4 indicate intermediate degrees of injury based upon the number and extent to which leaves were injured.

For another test, the system named is Bean. The test can be described thus: Post-emergent herbicidal test, bean. The class given is in vivo. Also on record: key: 1: no perceptible injury; 2: intermediate degrees of injury; 3: intermediate degrees of injury; 4: intermediate degrees of injury; 5: the plant was dead. As to conditions: 2500 parts per million, after ten days; for Post Emergent Herbicidal, Bean: Table III; for Post-emergent Herbicidal, Bean: Table II. The protocol: as §1, §2

Test [1] concerns two-spotted mite (adults and nymphal stages). The test can be described thus: Mite Foliage Spray Test (adults and nymphs). The class given is in vivo, Tetranychus urticae (Koch). Also on record: key to Miticidal, Adult: A: Excellent Control; B: Partial Control; No Control. To be noted: for LC50: Tetranychus urticae, foliar, Table III, ppm required for a 50 percent kill of mites, read-out: Miticidal LD50, Adult; for Miticidal, Adult: Table II, mortality count after four days. As for the experimental part: Suspensions of the test compounds were prepared by dissolving one gram of compound in 50 milliliters of acetone in which had been dissolved 0.1 gram (10 percent of the weight of compound) of an alkylphenoxyethanol sufactant, as an emulsifying or dispersing agent. The resulting solution was mixed into 160 milliliters of water to give roughly 200 milliliters of a suspension containing the compound in finely divided form. The thus prepared stock suspension contained 0.5 percent by weight of compound. The test concentrations employed in the tests described below were obtained by diluting the stock suspension with water. The test procedures were as follows: Adults and nymphal stages of the two-spotted mite (Tetranychus urticae (Koch)), reared on Tender-green beam plants at 80±5° F. and 50±5 percent relative humidity, were the tests organisms. Infested leaves from a stock culture were placed of the primary leaves of two bean plants six to eight inches in height, growing in a two-and-a-half inch clay pot. 150-200 Mites, a sufficient number for testing, transferred from the excised leaves to the fresh plants in a period of twenty-four hours. Following the twenty-four hour transfer period, the excised leaves were removed from the infested plants. The test compounds were formulated by diluting the stock suspension with water to provide suspensions containing the desired amount of test compound per million parts of final formulation. The potted plants (one pot per compound) were placed on a revolving turntable and sprayed with 100-110 milliliters of tests compound formulation by use of a DeVilbis spray gun set at 40 psi, air pressure. This application, which lasted 30 seconds, was sufficient to wet the plants to run-off. As a control, 100-110 milliliters of a water solution containing acetone and emulsifier in the same concentrations as the test compound formulation, but containing no test compound, were also sprayed on infested plants. The sprayed plants were held at 80±5° F. and 50±5 percent relative humidity for four days, after which, a mortality count of motile forms was made on the leaves of the test plants. Any individual which was capable of locomotion upon prodding was considered living. In these tests the pesticidal activity of the compounds against mites and mite eggs was rated as follows: Tests were conducted in accordance with the procedures given at pages 17 to 21 supra. The results are expressed in the same manner as used in Table II, except with respect to miticidal activity. For mite adult and mite egg comparison purposes, results are given in parts per million (ppm) required for a 50 percent kill of mites or eggs, respectively.

In the case of `CCCCC(CC)C(=O)OC1=C(c2ccccc2C)C(=O)C2CCCCC12` (stereo not drawn) [drawing 22], the “Post Emergent Herbicidal, Soybean” value in the test with Soybean is reported as 2. Also, the “Post Emergent Herbicidal, Bean” value in the test with Bean came to 1. In addition, in test [1], the LC50 amounted to 7 µg/mL (≈ 19 µM).

Regarding `CCCCCCCCCCCCCCCC(=O)OC1=C(c2cc(C)ccc2C)C(=O)CC1` [Compound 14], the “Post-emergent Herbicidal, Soybean” value with Soybean amounted to 3. For the same compound, the “Post-emergent Herbicidal, Bean” value in the test on Bean was found to be 2. For the same compound, the “Miticidal, Adult” value in test [1] was “A”.

With `CCCCC(CC)C(=O)OC1=C(c2ccccc2Cl)C(=O)CC1` (stereo not drawn) [Compound 1], the “Post-emergent Herbicidal, Soybean” value in the test on Soybean came out at 3. Further, the “Post-emergent Herbicidal, Bean” value with Bean worked out at 3. The “Miticidal, Adult” value in test [1] was “A”.

For `CCCCCCCCCC(=O)OC1=C(c2cc(C)ccc2C)C(=O)c2ccccc21` [reference compound], the “Post Emergent Herbicidal, Soybean” value in the test on Soybean came out at 0. Moreover, the “Post Emergent Herbicidal, Bean” value with Bean amounted to 1. For the same compound, the LC50 in test [1] amounted to 500 µg/mL (≈ 1240 µM).

For `Cc1ccccc1C1=C(OC(=O)C(C)(C)C)C2CCCCC2C1=O` (stereo not drawn) [drawing 24], in the test on Soybean, the “Post Emergent Herbicidal, Soybean” value was 3. Besides, the “Post Emergent Herbicidal, Bean” value in the test on Bean came to 2. Moreover, in test [1], the LC50 was found to be 15 µg/mL (≈ 46 µM).

Consider `Cc1ccc(C2=C(OC(=O)c3ccccc3)C3CCCCC3C2=O)c(C)c1` (stereo not drawn) [Compound 27, 3-benzoyloxy-2-(2',4'-dimethylphenyl)-4,5,6,7,8,9-hexahydro-2-indenone], for which, in the test on Soybean, the “Post-emergent Herbicidal, Soybean” value came to 2. Also, the “Post-emergent Herbicidal, Bean” value in the test with Bean was determined as 1. Also, in test [1], the “Miticidal, Adult” value is reported as “A”.

Regarding `Cc1ccc(C)c(C2=C(OC(=O)C(C)(C)C)C3CCCCC3C2=O)c1` (stereo not drawn) [Compound 31], the “Post-emergent Herbicidal, Soybean” value in the test with Soybean is 2. In addition, in the test on Bean, the “Post-emergent Herbicidal, Bean” value was 1. Moreover, in test [1], the “Miticidal, Adult” value is “A”.

Take `CCCCCCCCCCCCCCCC(=O)OC1=C(c2ccccc2C)C(=O)CC1` [Compound 8]: the “Post-emergent Herbicidal, Soybean” value in the test with Soybean is 3. Also, the “Post-emergent Herbicidal, Bean” value in the test on Bean came to 3. In addition, the “Miticidal, Adult” value in test [1] is given as “A”.

For the compound `CCCCCCCCCC(=O)OC1=C(c2cc(C)ccc2C)C(=O)C2CCCCC12` (stereo not drawn) [Compound 32], the “Post-emergent Herbicidal, Soybean” value in the test with Soybean was 1. The “Post-emergent Herbicidal, Bean” value in the test on Bean is on record as 1. In test [1], the “Miticidal, Adult” value is on record as “A”.

Regarding `CCCCC(CC)C(=O)OC1=C(c2ccccc2C)C(=O)c2ccccc21` (stereo not drawn) [reference compound], the “Post Emergent Herbicidal, Soybean” value in the test on Soybean is 0. Besides, in the test with Bean, the “Post Emergent Herbicidal, Bean” value is reported as 1. For the same compound, the LC50 in test [1] came to 500 µg/mL (≈ 1380 µM).

Regarding `CC(=O)OC1=C(c2cc(C)ccc2C)C(=O)C2CCCCC12` (stereo not drawn) [Compound 28], the “Post-emergent Herbicidal, Soybean” value in the test with Soybean is recorded as 2. Further, the “Post-emergent Herbicidal, Bean” value with Bean was found to be 2. Besides, the “Miticidal, Adult” value in test [1] is “A”.

As to `CCCCCCCCCC(=O)OC1=C(c2ccccc2C)C(=O)c2ccccc21` [reference compound], the “Post Emergent Herbicidal, Soybean” value in the test on Soybean worked out at 0. Also, in the test on Bean, the “Post Emergent Herbicidal, Bean” value is 1. In addition, in test [1], the LC50 is 500 µg/mL (≈ 1280 µM).

Turning to `O=C1CCC(OC(=O)c2ccccc2)=C1c1ccccc1Cl` [Compound 2], in the test on Soybean, the “Post-emergent Herbicidal, Soybean” value came to 2. Moreover, in the test on Bean, the “Post-emergent Herbicidal, Bean” value was 3. In addition, in test [1], the “Miticidal, Adult” value was “A”.

With `Cc1ccccc1C1=C(OC(=O)C(C)(C)C)c2ccccc2C1=O` [reference compound], the “Post Emergent Herbicidal, Soybean” value in the test with Soybean was 0. For the same compound, the “Post Emergent Herbicidal, Bean” value in the test on Bean came out at 1. The LC50 in test [1] worked out at 100 µg/mL (≈ 312 µM).

The record behind these values is patent US4551547A, “Biocidal 2-aryl-1, 3-cyclopentanedione enol ester compounds” (Union Carbide Corporation, priority 1983, dated 1985).
